Legend:
[1] = biological target: T1, Mouse urotensin (mUR2) (Mus musculus, UniProt Q8VIH9); assay: Radioligand binding, mouse urotensin mUR2 membranes, FlashPlate, [125I]-Urotensin II; conditions: compound at 10 μM; for A11: inhibition of radioligand binding, mouse urotensin (mUR2): [125I]-Urotensin II
T1 construct: purchased Perkin Elmer Biosignal
T1 sequence (Q8VIH9 1-385): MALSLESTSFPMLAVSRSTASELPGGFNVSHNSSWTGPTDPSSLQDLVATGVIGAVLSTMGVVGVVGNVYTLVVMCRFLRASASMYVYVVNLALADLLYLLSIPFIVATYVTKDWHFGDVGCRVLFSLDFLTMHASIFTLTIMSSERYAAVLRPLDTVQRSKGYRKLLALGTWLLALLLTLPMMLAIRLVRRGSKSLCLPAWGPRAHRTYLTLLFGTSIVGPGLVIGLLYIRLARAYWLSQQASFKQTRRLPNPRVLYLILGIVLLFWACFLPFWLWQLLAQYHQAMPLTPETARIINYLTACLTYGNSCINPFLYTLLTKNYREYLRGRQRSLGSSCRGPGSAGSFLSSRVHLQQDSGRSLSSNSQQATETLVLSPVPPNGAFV
Method in brief: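 Cloned mouse urotensin (mUR2) receptor membranes from Perkin Elmer Biosignal were immobilized in FlashPlate microplates using a proprietary coating. Each well got 19.5 μl buffer, then 0.5 μl of DMSO, reference ligand, or compound. Adding 5 μl of [125I]-Urotensin II, diluted to 5× final concentration in binding buffer, started binding. Plates were sealed with TopSeal-A and incubated 1 hour at room temperature in the dark. Wells were counted for 30 seconds each on a TopCount after a 60-second delay, and percentage inhibition was calculated.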

[2] = biological target: T2, Human neuropeptide Y (NPY-Y1) (Homo sapiens, UniProt P25929); assay: Radioligand binding, human neuropeptide Y NPY-Y1 membranes, FlashPlate, [125I]-PYY; conditions: compound at 10 μM; for A9: inhibition of radioligand binding, human neuropeptide Y (NPY-Y1): [125I]-PYY
T2 construct: purchased Perkin Elmer Biosignal
T2 sequence (P25929 1-384): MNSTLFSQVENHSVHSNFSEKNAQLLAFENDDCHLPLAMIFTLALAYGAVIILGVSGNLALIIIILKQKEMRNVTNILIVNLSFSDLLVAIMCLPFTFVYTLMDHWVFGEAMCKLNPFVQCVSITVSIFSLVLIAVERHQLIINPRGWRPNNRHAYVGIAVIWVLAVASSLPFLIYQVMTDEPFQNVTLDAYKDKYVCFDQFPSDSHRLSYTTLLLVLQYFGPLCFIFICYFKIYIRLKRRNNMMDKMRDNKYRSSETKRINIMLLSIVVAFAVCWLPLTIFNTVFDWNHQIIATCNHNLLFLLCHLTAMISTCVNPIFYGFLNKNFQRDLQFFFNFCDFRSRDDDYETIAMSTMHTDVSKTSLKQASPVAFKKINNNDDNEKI
Method in brief: (§1)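 Cloned human receptor membranes were coated onto FlashPlate wells and incubated with radioligand and compound (added from a 0.5 mM DMSO daughter plate) for 1 hour at room temperature in the dark. Scintillation counting gave percent inhibition, with DMSO defining total and reference ligand defining non-specific binding.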

[3] = biological target: T3, Human δ-opioid (DOP) (Homo sapiens, UniProt P41143); assay: Radioligand binding, human δ-opioid (DOP) membranes, FlashPlate, [3H]-Bremazocine; conditions: compound at 10 μM; for A1: inhibition of radioligand binding, human δ-opioid (DOP): [3H]-Bremazocine
T3 construct: purchased Perkin Elmer Biosignal
Method in brief: as §1

[4] = biological target: T4, Human Melanocortin (MC4) (Homo sapiens, UniProt P32245); assay: Radioligand binding, human melanocortin MC4 membranes, FlashPlate, [125I]-NDP-αMSH; conditions: compound at 10 μM; for A4: inhibition of radioligand binding, human melanocortin (MC4): [125I]-NDP-αMSH
T4 construct: purchased Perkin Elmer Biosignal
Method in brief: as §1

[5] = biological target: T5, Human melanin-concentrating hormone (MCH1) (Homo sapiens, UniProt Q99705); assay: Radioligand binding, human melanin-concentrating hormone MCH1 membranes, FlashPlate, [125I]-S36057; conditions: compound at 10 μM; for A6: inhibition of radioligand binding, human melanin-concentrating hormone (MCH1): [125I]-S36057
T5 construct: purchased Perkin Elmer Biosignal
Method in brief: as §1

[6] = biological target: T6, Human μ-opioid (MOP) (Homo sapiens, UniProt P35372); assay: Radioligand binding, human μ-opioid (MOP) membranes, FlashPlate, [3H]-Naloxone; conditions: compound at 10 μM; for A7: inhibition of radioligand binding, human μ-opioid (MOP): [3H]-Naloxone
T6 construct: purchased Perkin Elmer Biosignal
Method in brief: as §1

[7] = biological target: T7, Human opioid (ORL1) (Homo sapiens, UniProt P41146); assay: Radioligand binding, human opioid ORL1 membranes, FlashPlate, [125I]-Nociceptin; conditions: compound at 10 μM; for A10: inhibition of radioligand binding, human opioid (ORL1): [125I]-Nociceptin
T7 construct: purchased Perkin Elmer Biosignal
Method in brief: as §1

[8] = biological target: T8, Human melanocortin (MC5) (Homo sapiens, UniProt P33032); assay: Radioligand binding, human melanocortin MC5 membranes, FlashPlate, [125I]-NDP-αMSH; conditions: compound at 10 μM; for A5: inhibition of radioligand binding, human melanocortin (MC5): [125I]-NDP-αMSH
T8 construct: purchased Perkin Elmer Biosignal
Method in brief: as §1

[9] = biological target: T9, Human neurokinin (NK1) (Homo sapiens, UniProt P25103); assay: Radioligand binding, human neurokinin NK1 membranes, filtration, [125I]-Substance P; conditions: compound at 10 μM; for A8: inhibition of radioligand binding, human neurokinin (NK1): [125I]-Substance P
T9 construct: purchased Perkin Elmer Biosignal
Method in brief: (§2)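 Membranes from cloned human receptors were incubated with compound and radioligand for 1 hour at room temperature. Bound ligand was collected on 0.3% PEI-soaked filters, washed with cold 50 mM Tris-HCl pH 7.4, and counted by scintillation. Percent inhibition was computed against DMSO totals and reference-ligand nonspecific wells.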

[10] = biological target: T10, Human Melanocortin (MC3) (Homo sapiens, UniProt P41968); assay: Radioligand binding, human melanocortin MC3 membranes, FlashPlate, [125I]-NDP-αMSH; conditions: compound at 10 μM; for A3: inhibition of radioligand binding, human melanocortin (MC3): [125I]-NDP-αMSH
T10 construct: purchased Perkin Elmer Biosignal
Method in brief: as §1

[11] = biological target: T11, Human κ-Opioid (KOP) (Homo sapiens, UniProt P41145); assay: Radioligand binding, human κ-opioid (KOP) membranes, filtration, [3H]-Diprenorphine; conditions: compound at 10 μM; for A2: inhibition of radioligand binding, human κ-opioid (KOP): [3H]-Diprenorphine
T11 construct: purchased Perkin Elmer Biosignal
Method in brief: as §2

T11 sequence (P41145 whole entry): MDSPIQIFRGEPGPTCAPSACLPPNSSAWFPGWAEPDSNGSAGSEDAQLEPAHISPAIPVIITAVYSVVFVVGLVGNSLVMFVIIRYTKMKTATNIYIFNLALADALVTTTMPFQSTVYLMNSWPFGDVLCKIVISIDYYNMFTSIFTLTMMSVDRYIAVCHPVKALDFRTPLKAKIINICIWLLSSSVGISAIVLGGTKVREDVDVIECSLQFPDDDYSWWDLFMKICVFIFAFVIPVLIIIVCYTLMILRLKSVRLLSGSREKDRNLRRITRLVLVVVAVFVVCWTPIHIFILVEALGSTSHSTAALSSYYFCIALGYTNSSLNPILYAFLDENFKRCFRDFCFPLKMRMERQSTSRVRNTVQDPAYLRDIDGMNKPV
T9 sequence (P25103 whole entry): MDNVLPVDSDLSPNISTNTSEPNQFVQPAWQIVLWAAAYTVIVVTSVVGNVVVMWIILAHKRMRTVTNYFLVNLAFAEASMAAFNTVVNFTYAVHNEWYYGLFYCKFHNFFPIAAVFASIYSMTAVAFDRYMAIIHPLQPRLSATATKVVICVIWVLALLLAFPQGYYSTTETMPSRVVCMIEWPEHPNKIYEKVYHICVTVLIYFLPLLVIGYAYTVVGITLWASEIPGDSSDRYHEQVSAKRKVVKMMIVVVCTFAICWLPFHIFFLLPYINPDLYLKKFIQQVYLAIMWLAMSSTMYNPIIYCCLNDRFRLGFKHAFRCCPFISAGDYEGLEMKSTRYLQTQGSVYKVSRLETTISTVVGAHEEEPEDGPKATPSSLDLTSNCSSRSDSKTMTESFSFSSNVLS
T6 sequence (P35372 whole entry): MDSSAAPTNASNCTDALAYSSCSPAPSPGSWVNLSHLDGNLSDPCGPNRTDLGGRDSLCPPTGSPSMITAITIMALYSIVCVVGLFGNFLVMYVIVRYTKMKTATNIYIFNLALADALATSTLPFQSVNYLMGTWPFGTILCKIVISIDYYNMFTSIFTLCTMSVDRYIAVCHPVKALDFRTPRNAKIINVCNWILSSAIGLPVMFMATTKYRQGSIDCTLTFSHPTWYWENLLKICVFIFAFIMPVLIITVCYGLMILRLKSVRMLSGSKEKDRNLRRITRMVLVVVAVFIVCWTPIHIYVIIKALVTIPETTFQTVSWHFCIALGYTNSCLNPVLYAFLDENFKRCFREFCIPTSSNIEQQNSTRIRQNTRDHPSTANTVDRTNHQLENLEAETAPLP
T3 sequence (P41143 whole entry): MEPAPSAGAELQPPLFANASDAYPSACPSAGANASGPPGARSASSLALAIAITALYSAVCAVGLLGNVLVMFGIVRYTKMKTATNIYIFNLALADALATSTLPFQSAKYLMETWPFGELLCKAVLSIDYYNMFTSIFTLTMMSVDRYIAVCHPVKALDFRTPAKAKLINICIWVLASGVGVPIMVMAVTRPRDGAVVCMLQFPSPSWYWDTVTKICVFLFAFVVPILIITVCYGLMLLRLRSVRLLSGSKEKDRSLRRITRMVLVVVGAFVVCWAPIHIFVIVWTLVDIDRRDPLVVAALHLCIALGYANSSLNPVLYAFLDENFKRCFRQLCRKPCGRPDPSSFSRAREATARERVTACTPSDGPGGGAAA
T5 sequence (Q99705 whole entry): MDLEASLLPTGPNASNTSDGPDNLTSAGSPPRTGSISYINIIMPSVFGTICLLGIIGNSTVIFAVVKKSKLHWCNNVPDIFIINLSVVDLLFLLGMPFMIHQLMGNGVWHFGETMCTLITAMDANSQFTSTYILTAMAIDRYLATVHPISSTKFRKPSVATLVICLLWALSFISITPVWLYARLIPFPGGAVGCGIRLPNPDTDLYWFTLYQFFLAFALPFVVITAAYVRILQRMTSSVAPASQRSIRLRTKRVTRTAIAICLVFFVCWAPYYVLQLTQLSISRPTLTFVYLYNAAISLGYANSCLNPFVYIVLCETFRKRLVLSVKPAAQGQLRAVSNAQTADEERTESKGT
T8 sequence (P33032 whole entry): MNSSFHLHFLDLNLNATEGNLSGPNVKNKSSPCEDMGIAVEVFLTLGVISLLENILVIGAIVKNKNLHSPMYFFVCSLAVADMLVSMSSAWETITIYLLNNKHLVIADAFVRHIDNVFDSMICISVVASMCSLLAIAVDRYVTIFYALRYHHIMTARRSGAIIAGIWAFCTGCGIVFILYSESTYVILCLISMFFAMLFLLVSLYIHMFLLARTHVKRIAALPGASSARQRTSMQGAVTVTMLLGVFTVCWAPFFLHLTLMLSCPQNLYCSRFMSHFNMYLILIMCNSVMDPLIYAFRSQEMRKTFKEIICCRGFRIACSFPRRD
T10 sequence (P41968 whole entry): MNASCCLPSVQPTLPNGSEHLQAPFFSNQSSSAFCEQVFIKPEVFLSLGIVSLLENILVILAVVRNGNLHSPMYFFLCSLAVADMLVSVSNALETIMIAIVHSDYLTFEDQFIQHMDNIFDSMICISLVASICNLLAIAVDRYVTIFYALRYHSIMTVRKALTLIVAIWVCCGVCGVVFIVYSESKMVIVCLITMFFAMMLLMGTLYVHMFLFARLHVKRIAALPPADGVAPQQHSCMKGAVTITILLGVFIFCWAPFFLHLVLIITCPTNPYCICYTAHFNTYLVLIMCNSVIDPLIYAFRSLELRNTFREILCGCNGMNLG
T4 sequence (P32245 whole entry): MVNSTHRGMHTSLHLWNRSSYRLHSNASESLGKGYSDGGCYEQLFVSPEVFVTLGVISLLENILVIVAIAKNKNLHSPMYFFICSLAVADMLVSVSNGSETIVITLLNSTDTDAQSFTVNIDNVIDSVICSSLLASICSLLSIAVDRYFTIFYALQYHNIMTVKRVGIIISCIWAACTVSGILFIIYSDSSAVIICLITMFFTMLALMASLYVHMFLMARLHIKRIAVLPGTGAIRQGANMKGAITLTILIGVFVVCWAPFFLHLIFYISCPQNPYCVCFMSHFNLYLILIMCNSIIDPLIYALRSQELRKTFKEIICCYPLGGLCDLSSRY
T7 sequence (P41146 whole entry): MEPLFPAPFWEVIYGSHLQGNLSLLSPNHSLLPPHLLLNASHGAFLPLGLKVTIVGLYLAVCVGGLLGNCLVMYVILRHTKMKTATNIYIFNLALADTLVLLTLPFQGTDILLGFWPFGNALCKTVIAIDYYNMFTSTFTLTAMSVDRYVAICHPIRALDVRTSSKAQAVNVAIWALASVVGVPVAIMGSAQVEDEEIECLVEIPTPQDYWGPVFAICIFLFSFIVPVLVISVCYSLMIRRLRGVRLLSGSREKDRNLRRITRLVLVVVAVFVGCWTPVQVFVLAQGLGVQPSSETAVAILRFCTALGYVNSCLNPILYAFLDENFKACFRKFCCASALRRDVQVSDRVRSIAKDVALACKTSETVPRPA

`CSC1O[C@H](COCc2ccc(Cl)cc2)[C@@H](O)[C@@H](OCc2ccc(-c3ccccc3)cc2)[C@H]1NC(=O)CCCNC(=N)N` (stereo partly drawn) [compound 292] was tested, and the “A11: inhibition of radioligand binding, mouse urotensin (mUR2)” value [1] was “− (“−” indicates less than 50% inhibition at 10 μM)”, the “A9: inhibition of radioligand binding, human neuropeptide Y (NPY-Y1)” value [2] was “− (“−” indicates less than 50% inhibition at 10 μM)” and the “A1: inhibition of radioligand binding, human δ-opioid (DOP)” value [3] was “− (“−” indicates less than 50% inhibition at 10 μM)”. For the same compound, the “A4: inhibition of radioligand binding, human melanocortin (MC4)” value [4] was “− (“−” indicates less than 50% inhibition at 10 μM)”, the “A6: inhibition of radioligand binding, human melanin-concentrating hormone (MCH1)” value [5] was “− (“−” indicates less than 50% inhibition at 10 μM)” and the “A7: inhibition of radioligand binding, human μ-opioid (MOP)” value [6] was “− (“−” indicates less than 50% inhibition at 10 μM)”. The “A10: inhibition of radioligand binding, human opioid (ORL1)” value [7] was “− (“−” indicates less than 50% inhibition at 10 μM)”, the “A5: inhibition of radioligand binding, human melanocortin (MC5)” value [8] was “+ (“+” indicates greater than 50% inhibition at 10 μM)” and the “A8: inhibition of radioligand binding, human neurokinin (NK1)” value [9] was “+ (“+” indicates greater than 50% inhibition at 10 μM)”. The “A3: inhibition of radioligand binding, human melanocortin (MC3)” value [10] was “− (“−” indicates less than 50% inhibition at 10 μM)” and the “A2: inhibition of radioligand binding, human κ-opioid (KOP)” value [11] was “− (“−” indicates less than 50% inhibition at 10 μM)”.

In the case of `CO[C@H]1[C@H](O)[C@@H](COCc2ccc3ccccc3c2)OC(OCc2ccc3ccccc3c2)[C@@H]1NC(=O)CCNC(=N)N` (stereo partly drawn) [compound 71], the “A11 radioligand binding inhibition” value ([1]; mouse urotensin mUR2 membranes) is reported as “− (“−” indicates less than 50% inhibition at 10 μM)”, the “A9 radioligand binding inhibition” value ([2]; human NPY-Y1 membranes) is reported as “− (“−” indicates less than 50% inhibition at 10 μM)” and the “A1 radioligand binding inhibition” value ([3]; human δ-opioid (DOP) membranes) is reported as “− (“−” indicates less than 50% inhibition at 10 μM)”. The “A4 radioligand binding inhibition” value ([4]; human melanocortin MC4 membranes) was “+ (“+” indicates greater than 50% inhibition at 10 μM)”, the “A6 radioligand binding inhibition” value ([5]; human MCH1 membranes) was “+ (“+” indicates greater than 50% inhibition at 10 μM)” and the “A7 radioligand binding inhibition” value ([6]; human μ-opioid (MOP) membranes) was “+ (“+” indicates greater than 50% inhibition at 10 μM)”. For the same compound, the “A10 radioligand binding inhibition” value ([7]; human ORL1 membranes) was “+ (“+” indicates greater than 50% inhibition at 10 μM)”, the “A5 radioligand binding inhibition” value ([8]; human melanocortin MC5 membranes) was “+ (“+” indicates greater than 50% inhibition at 10 μM)” and the “A8 radioligand binding inhibition” value ([9]; human neurokinin NK1 membranes) was “+ (“+” indicates greater than 50% inhibition at 10 μM)”. For the same compound, the “A3 radioligand binding inhibition” value ([10]; human melanocortin MC3 membranes) was “+ (“+” indicates greater than 50% inhibition at 10 μM)” and the “A2 radioligand binding inhibition” value ([11]; human κ-opioid (KOP) membranes) was “+ (“+” indicates greater than 50% inhibition at 10 μM)”.

With `CSC1OC(COCc2ccc3ccccc3c2)C(O)C(OCc2ccc3ccccc3c2)C1NC(=O)CCCN` (stereo not drawn) [compound 320] the “A11: inhibition of radioligand binding, mouse urotensin (mUR2)” value [1] was “− (“−” indicates less than 50% inhibition at 10 μM)”, the “A9: inhibition of radioligand binding, human neuropeptide Y (NPY-Y1)” value [2] was “− (“−” indicates less than 50% inhibition at 10 μM)” and the “A1: inhibition of radioligand binding, human δ-opioid (DOP)” value [3] was “− (“−” indicates less than 50% inhibition at 10 μM)”. The “A4: inhibition of radioligand binding, human melanocortin (MC4)” value [4] was “− (“−” indicates less than 50% inhibition at 10 μM)”, the “A6: inhibition of radioligand binding, human melanin-concentrating hormone (MCH1)” value [5] was “− (“−” indicates less than 50% inhibition at 10 μM)” and the “A7: inhibition of radioligand binding, human μ-opioid (MOP)” value [6] was “− (“−” indicates less than 50% inhibition at 10 μM)”. The “A10: inhibition of radioligand binding, human opioid (ORL1)” value [7] was “− (“−” indicates less than 50% inhibition at 10 μM)”, the “A5: inhibition of radioligand binding, human melanocortin (MC5)” value [8] was “+ (“+” indicates greater than 50% inhibition at 10 μM)” and the “A8: inhibition of radioligand binding, human neurokinin (NK1)” value [9] was “+ (“+” indicates greater than 50% inhibition at 10 μM)”. For the same compound, the “A3: inhibition of radioligand binding, human melanocortin (MC3)” value [10] was “− (“−” indicates less than 50% inhibition at 10 μM)” and the “A2: inhibition of radioligand binding, human κ-opioid (KOP)” value [11] was “− (“−” indicates less than 50% inhibition at 10 μM)”.

— patent publication US20080009418A1, “Selective Inhibitors” (Alchemia LTD., priority 2004, published 2008)
